One molecule from publication PMC12534982 (Journal of Experimental & Clinical Cancer Research : CR, 2025) can be followed below.

For series [1], the system named is colorectal cancer cells. The series can be described thus: Clonogenic assay. Format: cell-based, human. On the procedure:
Cancer cells (4 × 10^3) were cultured in 6-well plates in triplicate and treated with DMSO or NK-A 17E-233I (25 µM) for two weeks. Colonies were subsequently stained with a solution containing 0.5% crystal violet (#B21932.14; ThermoScientific) and 20% ethanol, followed by multiple washes with water. Plates were allowed to air dry overnight and were subsequently scanned using an Epson Perfection V850 Pro scanner (Kamera Express, Spain). The area of the wells occupied by cells was quantified utilizing the ImageJ plugin ColonyArea.

Series [2] concerns basal forebrain cholinergic neurons (BFCNs). Put plainly: Cytoskeleton immunostaining. Particulars: 24 h. Format: cell-based, mouse. The protocol: To evaluate DNA damage, cancer cells (1 × 10^3) were cultured in 8-well collagen IV Ibidi chamber slides (#80,822; Ibidi) for 24 h, treated with DMSO or NK-A 17E-233I (25 µM) for an additional 24 h, and then fixed. For assessing the integrity of the cytoskeleton, neuronal cells (BFCNs) were cultured on coverslips for 14 days, while non-neuronal cells (cancer cells) were cultured on coverslips for 24 h. Both neuronal and non-neuronal cells were treated with DMSO or NK-A 17E-233I (1 µM) for 24 h, fixed, and permeabilized as described in [21]. Samples were then blocked (non-neuronal cells with 3% BSA in PBS-T and neuronal cells with 10% BSA in PBS-T) and incubated overnight at 4 °C with the appropriate primary antibodies. Following this, samples were washed with PBS-T and incubated for 1 h with Alexa-488 Phalloidin (#A12379; Invitrogen-ThermoFisher Scientific) to visualize F-actin, along with the corresponding secondary antibodies. The cells were mounted with Ibidi mounting medium containing 4',6-diamidino-2-phenylindole (DAPI, #50011; Ibidi) prior to imaging.
The primary antibodies utilized were: anti–α-tubulin at a 1:1000 dilution (#SC-32293; Santa Cruz), anti–γ-H2AX and anti-Rad51 at 1:500 dilution (#ab22551 and #ab133534, respectively; […]), and anti–microtubule-associated protein 2 (MAP2) at a 1:1000 dilution (#OSM00149W; ThermoFisher Scientific). […]

Series [3] has as its system SW620 cells. The series can be described thus: Mitochondrial respiration (OCR) in intact cells. The class given is cell-based, human. Particulars: 24 h. The protocol: Oxygen consumption rate (OCR) was measured using a high-resolution respirometer (Oxygraph-2k, Oroboros Instruments, Innsbruck, Austria). SW620 cells (2.2 × 10^6) were cultured in 100-mm Petri dishes and treated with DMSO or NK-A 17E-233I (25 µM) for 24 h. Cells were harvested at 80% confluency using 0.25% trypsin/EDTA and resuspended in complete DMEM at a concentration of 5 × 10^5 cells/mL. The cells were subsequently analyzed in two 2 mL Oxygraph chambers. Real-time measurements of OCR were conducted at 37 °C under basal conditions and following the sequential addition of inhibitors targeting various mitochondrial respiratory complexes: oligomycin (2.5 μM) to inhibit complex V (to assess ATP-linked respiration and leak rate), carbonyl cyanide-p-trifluoromethoxyphenylhydrazone (FCCP) with stepwise titration in 0.5 μM increments (to evaluate maximal electron transport system respiratory capacity and reserve capacity), and rotenone (0.5 μM) and antimycin A (2.5 μM) to inhibit complex I and complex III, respectively (to measure non-mitochondrial oxygen consumption). The values of OCR were normalized to mitochondrial DNA copy number, which was quantified by qPCR using the primers referenced above. Data analysis was performed using DatLab7 (Oroboros, Austria) software.

Series [4] concerns colorectal cancer cells. The series can be described thus: Oxidative stress (CellROX Deep Red). Format: cell-based, human. On the procedure: Cancer cells (1 × 10^3) were cultured in 8-well collagen IV Ibidi chamber slides and treated with DMSO or NK-A 17E-233I (25 µM) for 24 h. The media was replaced with fresh media containing 100 nM MitoTracker Red dye to measure ΔΨm (1 mM stock; #M7512; Thermo Fisher Scientific) and 5 µM CellROX Deep Red Reagent to assess oxidative stress levels (2.5 mM stock; #C10422; Thermo Fisher Scientific) for 45 min. The cells were then fixed with 4% methanol-free PFA, washed with PBS, and mounted with Ibidi mounting medium containing 4',6-diamidino-2-phenylindole (DAPI) prior to imaging.
The density of γ-H2AX, Rad51, ΔΨm, and oxidative stress in cancer cells was measured as described in [32], utilizing custom macros available as open access at Zenodo (https://zenodo.org/records/8387899) to obtain raw intensities and individual cell area.

Series [5] has as its system SW620 cells. The series can be described thus: Lactate assay. The class given is cell-based, human. As to conditions: 25 µM, 24 h; in comparison to Brequinar (100 µM). On the procedure: This assessment was conducted utilizing a Lactate Assay Kit-WST (#L256-20; Dojindo Laboratories), in accordance with the manufacturer's protocol. Optical density measurements were recorded at 450 nm using a Victor Multilabel Plate Reader.

With `COc1cc(C)c(Oc2cc(C)cc(O)c2O)c(O)c1` [NK-A 17E-233I], in the series with colorectal cancer cells [1] (25 µM, two weeks), the “ability to form colonies” value is recorded as “significantly diminished”. Further, in the series on colorectal cancer cells [1] (LS174T: Tx 4 µM, VE-821 0.5 µM, 14 days, HCT116), the “combination with the ATR inhibitor VE-821” value is recorded as “synergistic activity”. Besides, the “dendritic and cytoskeletal structures (F-actin, MAP2)” value in series [2] was “retained their dendritic and cytoskeletal structures”. The maximal respiration entry with SW620 cells [3] (25 µM) was “significantly decreased”. Further, the “basal and ATP-linked respiration in intact cells” value in the series with SW620 cells [3] (NK-A 17E-233I 25 µM, Brequinar 100 µM) is listed as “retained basal respiration”. Besides, the ROS levels entry with colorectal cancer cells [4] (HCT116, 25 µM, 24 h) is on record as “significantly decreased”; in the series on colorectal cancer cells [4] (different cancer cell lines (HT-29), 25 µM), “without significant effect”. In addition, the concentration of lactate result with SW620 cells [5] is listed as “significantly reduced”.
